Results on 26 molecules are retold here after patent US20220135591A1, “HETEROCYCLIC COMPOUNDS AS INHIBITORS OF MONOACYLGLYCEROL LIPASE (MAGL)” (Hoffmann-La Roche Inc., priority 2019, published 2022).

Structures are written as SMILES.

Assay [1] concerns the target T1, MAGL (recombinant wild-type) (Homo sapiens, UniProt Q99685).
T1 sequence (Q99685 1-303): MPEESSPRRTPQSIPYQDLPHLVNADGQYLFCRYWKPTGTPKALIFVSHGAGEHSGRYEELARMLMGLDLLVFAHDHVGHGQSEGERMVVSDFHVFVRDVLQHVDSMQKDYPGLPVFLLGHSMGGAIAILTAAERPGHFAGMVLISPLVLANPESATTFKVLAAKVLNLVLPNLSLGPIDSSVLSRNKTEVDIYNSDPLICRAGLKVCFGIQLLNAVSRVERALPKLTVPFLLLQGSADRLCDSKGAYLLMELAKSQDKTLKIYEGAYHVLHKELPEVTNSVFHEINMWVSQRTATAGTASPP
The assay is described as follows: 4-NPA assay: MAGL inhibitory activity by hydrolysis of 4-nitrophenylacetate, absorbance at 405 nm. Format: biochemical. To be noted: 4-NPA assay (values without footnote [b]). The procedure: Compounds were profiled for MAGL inhibitory activity by measuring the enzymatic activity of MAGL by following the hydrolysis of 4-nitrophenylacetate resulting in 4-nitrophenol, which absorbs at 405-412 nm (G. G. Muccioli, G. Labar, D. M. Lambert, Chem. Bio. Chem. 2008, 9, 2704-2710). This assay is hereinafter abbreviated “4-NPA assay”.
The assay was carried out in 384 well assay plates (black with clear bottom, non-binding surface treated, Corning Ref. 3655) in a total volume of 40 μL. Compound dilutions were made in 100% DMSO (VWR Chemicals 23500.297) in a polypropylene plate in 3-fold dilution steps to give a final concentration range in the assay from 25 μM to 1.7 nM. 1 μL compound dilutions (100% DMSO) were added to 19 μL MAGL (recombinant wild-type) in assay buffer (50 mM TRIS (GIBCO, 15567-027), 1 mM EDTA (Fluka, 03690-100 mL)). The plate was shaked for 1 min at 2000 rpm (Variomag Teleshake) and then incubated for 15 min at RT. To start the reaction, 20 μL 4-Nitrophenlyacetate (Sigma N-8130) in assay buffer with 6% EtOH was added. The final concentrations in the assay were 1 nM MAGL and 300 μM 4-Nitrophenylacetate. After shaking (1 min, 2000 rpm) and 5 min incubation at RT, the absorbance at 405 nm was measured for a first time (Molecular Devices, SpectraMax Paradigm). A second measurement was then done after incubation for 80 min at RT. From the two measurements, the slope was calculated by subtracting the first from the second measurement.

The target of the next assay is T2, MAGL (Homo sapiens, UniProt Q99685).
T2 sequence (Q99685 1-303): T1 sequence (Q99685 1-303)
The experiment in a line: 2-AG assay: MAGL inhibitory activity by hydrolysis of 2-arachidonoylglycerol to arachidonic acid, mass spectrometry. To be noted: 2-AG assay (values marked [b]). Format: biochemical. In short, it runs like this:
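Human MAGL […] was preincubated 15 min at RT with compound ([…], 3-fold steps) in 50 mM Tris, 1 mM EDTA, 0.01% Tween. 2-AG (8 μM) was then added for 30 min at RT. Arachidonic acid was quantified by RapidFire SPE–triple quadrupole MS in negative ESI as its ratio to a d8-arachidonic acid standard.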

Turning to `Cc1ccc2oc(N3CCN(C(=O)c4ccc5nc(-c6ccccc6)oc5c4)CC3)nc2n1` [Example 1, (4-(5-Methyloxazolo[4,5-b]pyridin-2-yl)piperazin-1-yl)(2-phenylbenzo[d]oxazol-6-yl)methanone], the IC50 (in general, the midpoint of a concentration-inhibition curve) in assay [1] came to 115 nM.

Take `O=C(c1ccc2nc(-c3ccccc3)oc2c1)N1CCN(c2nc3ncccc3o2)CC1` [Example 2, (4-(oxazolo[4,5-b]pyridin-2-yl)piperazin-1-yl)(2-phenylbenzo[d]oxazol-6-yl)methanone]: in assay [1], the IC50 came out at 194 nM.

For `Cc1ccc2oc(N3CCN(C(=O)c4ccc5nc(N6CCCC6)oc5c4)CC3)nc2n1` [Example 3, (4-(5-methyloxazolo[4,5-b]pyridin-2-yl)piperazin-1-yl)(2-(pyrrolidin-1-yl)benzo[d]oxazol-6-yl)methanone], the IC50 in assay [1] was determined as 2330 nM.

In the case of `Cc1ccc2oc(N3CCN(C(=O)c4ccc(-c5noc(C(C)(C)C)n5)cc4)CC3)nc2n1` [Example 4, (4-(5-(tert-butyl)-1,2,4-oxadiazol-3-yl)phenyl)(4-(5-methyloxazolo[4,5-b]pyridin-2-yl)piperazin-1-yl)methanone], the IC50 in assay [1] amounted to 27 nM.

Turning to `Cc1ccc2oc(N3CCN(C(=O)c4ccc(-c5noc(CC(C)(C)C)n5)cc4)CC3)nc2n1` [Example 5, (4-(5-methyloxazolo[4,5-b]pyridin-2-yl)piperazin-1-yl)(4-(5-neopentyl-1,2,4-oxadiazol-3-yl)phenyl)methanone], the IC50 in assay [1] amounted to 9 nM.

As to `Cc1ccc2oc(N3CCN(C(=O)c4ccc5nc(N6CC7(CCCC7)C6)oc5c4)CC3)nc2n1` [Example 6, (2-(2-azaspiro[3.4]octan-2-yl)benzo[d]oxazol-6-yl)(4-(5-methyloxazolo[4,5-b]pyridin-2-yl)piperazin-1-yl)methanone], in assay [1], the IC50 is 25 nM.

In the case of `Cc1ccc2oc(N3CCN(C(=O)c4ccc(-c5noc(C(C)(C)CO)n5)cc4)CC3)nc2n1` [Example 7, (4-(5-(1-hydroxy-2-methylpropan-2-yl)-1,2,4-oxadiazol-3-yl)phenyl)(4-(5-methyloxazolo[4,5-b]pyridin-2-yl)piperazin-1-yl)methanone], the IC50 in assay [1] amounted to 262 nM.

`CC(C)(C)c1nc(-c2ccc(C(=O)N3CCN(c4nc5nccc(Cl)c5o4)CC3)cc2)no1` [Example 8, (4-(5-(tert-butyl)-1,2,4-oxadiazol-3-yl)phenyl)(4-(7-chlorooxazolo[4,5-b]pyridin-2-yl)piperazin-1-yl)methanone]: the IC50 in assay [1] stood at 247 nM.

Regarding `CC(C)(C)Cc1nc(-c2ccc(C(=O)N3CCN(c4nc5nccc(Cl)c5o4)CC3)cc2)no1` [Example 9, (4-(7-chlorooxazolo[4,5-b]pyridin-2-yl)piperazin-1-yl)(4-(5-neopentyl-1,2,4-oxadiazol-3-yl)phenyl)methanone], the IC50 in assay [1] stood at 27 nM.

On to `CC(C)(C)Cc1nc(-c2ccc(C(=O)N3CCN(c4nc5nc(Cl)ccc5o4)CC3)cc2)no1` [Example 10, (4-(5-chlorooxazolo[4,5-b]pyridin-2-yl)piperazin-1-yl)(4-(5-neopentyl-1,2,4-oxadiazol-3-yl)phenyl)methanone], for which the IC50 in assay [1] is 2 nM.

As for `Cc1ccc2oc(N3CCN(C(=O)c4ccc(-c5noc(C(C)(C)CF)n5)cc4)CC3)nc2n1` [Example 11, (4-(5-(1-fluoro-2-methylpropan-2-yl)-1,2,4-oxadiazol-3-yl)phenyl)(4-(5-methyloxazolo[4,5-b]pyridin-2-yl)piperazin-1-yl)methanone], in assay [1], the IC50 was found to be 49 nM.

On to `CC(C)(C)c1nc(-c2ccc(C(=O)N3CCN(c4nc5nc(Cl)ccc5o4)CC3)cc2)no1` [Example 12, (4-(5-(tert-butyl)-1,2,4-oxadiazol-3-yl)phenyl)(4-(5-chlorooxazolo[4,5-b]pyridin-2-yl)piperazin-1-yl)methanone], for which the IC50 in assay [1] is 8 nM.

With `CC(C)(C)Cc1nc(-c2ccc(C(=O)N3CCN(c4nc5ncccc5o4)CC3)cc2)no1` [Example 13, (4-(5-neopentyl-1,2,4-oxadiazol-3-yl)phenyl)(4-(oxazolo[4,5-b]pyridin-2-yl)piperazin-1-yl)methanone], the IC50 in assay [1] came to 37 nM.

As for `CC(C)(C)c1nc(-c2ccc(C(=O)N3CCN(c4nc5ncccc5o4)CC3)cc2)no1` [Example 14, (4-(5-(tert-butyl)-1,2,4-oxadiazol-3-yl)phenyl)(4-(oxazolo[4,5-b]pyridin-2-yl)piperazin-1-yl)methanone], the IC50 in assay [1] turned out to be 128 nM.

Regarding `CCC(CC)c1nc2ccc(C(=O)N3CCN(c4nc5nc(C)ccc5o4)CC3)cc2o1` [Example 15, [2-(1-ethylpropyl)-1,3-benzoxazol-6-yl]-[4-(5-methyloxazolo[4,5-b]pyridin-2-yl)piperazin-1-yl]methanone], the IC50 in assay [1] was 352 nM.

For the molecule `CC(C)(C)Cc1nnc(-c2ccc(C(=O)N3CCN(c4nc5nc(Cl)ccc5o4)CC3)cc2)o1` [Example 16, [4-(5-chlorooxazolo[4,5-b]pyridin-2-yl)piperazin-1-yl]-[4-[5-(2,2-dimethylpropyl)-1,3,4-oxadiazol-2-yl]phenyl]methanone], in assay [1], the half-maximal inhibitory concentration (IC50) was found to be 10 nM.

For the molecule `Cc1ccc2oc(N3CCN(C(=O)c4ccc5nc(C6CCCCC6)oc5c4)CC3)nc2n1` [Example 17, (2-cyclohexyl-1,3-benzoxazol-6-yl)-[4-(5-methyloxazolo[4,5-b]pyridin-2-yl)piperazin-1-yl]methanone], the IC50 in assay [1] worked out at 36 nM.

`Cc1ccc2oc(N3CCN(C(=O)c4ccc5nc(CCC(F)(F)F)oc5c4)CC3)nc2n1` [Example 18, [4-(5-methyloxazolo[4,5-b]pyridin-2-yl)piperazin-1-yl]-[2-(3,3,3-trifluoropropyl)-1,3-benzoxazol-6-yl]methanone]: the IC50 in assay [1] amounted to 434 nM.

As for `CC(C)(C)Cn1cc(-c2ccc(C(=O)N3CCN(c4nc5nc(Cl)ccc5o4)CC3)cc2)cn1` [Example 19, [4-(5-chlorooxazolo[4,5-b]pyridin-2-yl)piperazin-1-yl]-[4-[1-(2,2-dimethylpropyl)pyrazol-4-yl]phenyl]methanone], the IC50 in assay [1] stood at 2 nM.

Turning to `CC(C)(CF)c1nc(-c2ccc(C(=O)N3CCN(c4nc5nc(Cl)ccc5o4)CC3)cc2)no1` [Example 20, (4-(5-chlorooxazolo[4,5-b]pyridin-2-yl)piperazin-1-yl)(4-(5-(1-fluoro-2-methylpropan-2-yl)-1,2,4-oxadiazol-3-yl)phenyl)methanone], the IC50 in assay [1] amounted to 19 nM.

In the case of `CC/C=C/c1nc2ccc(C(=O)N3CCN(c4nc5nc(C)ccc5o4)CC3)cc2o1` [Example 21, [2-[(E)-but-1-enyl]-1,3-benzoxazol-6-yl]-[4-(5-methyloxazolo[4,5-b]pyridin-2-yl)piperazin-1-yl]methanone], the IC50 in assay [1] is 184 nM.

Turning to `Cc1ccc2oc(N3CCN(C(=O)c4cnc(-c5nnn(CC(C)(C)C)n5)c(F)c4)CC3)nc2n1` [Example 307, [6-[2-(2,2-dimethylpropyl)tetrazol-5-yl]-5-fluoro-3-pyridyl]-[4-(5-methyloxazolo[4,5-b]pyridin-2-yl)piperazin-1-yl]methanone], on MAGL, the half-inhibitory concentration (IC50) was found to be 1130 nM.

Take `Cc1cc(C(=O)N2CCN(c3nc4nc(Cl)ccc4o3)CC2)cnc1-c1nnn(CC(C)(C)C)n1` [Example 308, [4-(5-chlorooxazolo[4,5-b]pyridin-2-yl)piperazin-1-yl]-[6-[2-(2,2-dimethylpropyl)tetrazol-5-yl]-5-methyl-3-pyridyl]methanone]: the IC50 at MAGL came out at 111 nM.

Consider `Cc1ccc2oc(N3CCN(C(=O)c4cnc(-c5nnn(CC(C)(C)C)n5)c(C)c4)CC3)nc2n1` [Example 309, [6-[2-(2,2-dimethylpropyl)tetrazol-5-yl]-5-methyl-3-pyridyl]-[4-(5-methyloxazolo[4,5-b]pyridin-2-yl)piperazin-1-yl]methanone], for which, on MAGL, the IC50 came to 51 nM.

For `COc1cc(C(=O)N2CCN(c3nc4nc(C)ccc4o3)CC2)cnc1-c1nnn(CC(C)(C)C)n1` [Example 310, [6-[2-(2,2-dimethylpropyl)tetrazol-5-yl]-5-methoxy-3-pyridyl]-[4-(5-methyloxazolo[4,5-b]pyridin-2-yl)piperazin-1-yl]methanone], the IC50 against MAGL is 167 nM.

Regarding `COc1cc(C(=O)N2CCN(c3nc4nc(Cl)ccc4o3)CC2)cnc1-c1nnn(CC(C)(C)C)n1` [Example 311, [4-(5-chlorooxazolo[4,5-b]pyridin-2-yl)piperazin-1-yl]-[6-[2-(2,2-dimethylpropyl)tetrazol-5-yl]-5-methoxy-3-pyridyl]methanone], half-maximal inhibition against MAGL (IC50) required 61 nM.
